Legend:
[1] = target: Casein kinase I isoform epsilon (Homo sapiens) (UniProt P49674); experiment: Inhibition of human CK1epsilon at 500 nM by HotSpot assay relative to control
[2] = target: T1, Tyrosine-protein kinase JAK3 (Homo sapiens) (UniProt P52333); experiment: Inhibition of human JAK3 at 500 nM by HotSpot assay relative to control
T1 sequence (whole entry): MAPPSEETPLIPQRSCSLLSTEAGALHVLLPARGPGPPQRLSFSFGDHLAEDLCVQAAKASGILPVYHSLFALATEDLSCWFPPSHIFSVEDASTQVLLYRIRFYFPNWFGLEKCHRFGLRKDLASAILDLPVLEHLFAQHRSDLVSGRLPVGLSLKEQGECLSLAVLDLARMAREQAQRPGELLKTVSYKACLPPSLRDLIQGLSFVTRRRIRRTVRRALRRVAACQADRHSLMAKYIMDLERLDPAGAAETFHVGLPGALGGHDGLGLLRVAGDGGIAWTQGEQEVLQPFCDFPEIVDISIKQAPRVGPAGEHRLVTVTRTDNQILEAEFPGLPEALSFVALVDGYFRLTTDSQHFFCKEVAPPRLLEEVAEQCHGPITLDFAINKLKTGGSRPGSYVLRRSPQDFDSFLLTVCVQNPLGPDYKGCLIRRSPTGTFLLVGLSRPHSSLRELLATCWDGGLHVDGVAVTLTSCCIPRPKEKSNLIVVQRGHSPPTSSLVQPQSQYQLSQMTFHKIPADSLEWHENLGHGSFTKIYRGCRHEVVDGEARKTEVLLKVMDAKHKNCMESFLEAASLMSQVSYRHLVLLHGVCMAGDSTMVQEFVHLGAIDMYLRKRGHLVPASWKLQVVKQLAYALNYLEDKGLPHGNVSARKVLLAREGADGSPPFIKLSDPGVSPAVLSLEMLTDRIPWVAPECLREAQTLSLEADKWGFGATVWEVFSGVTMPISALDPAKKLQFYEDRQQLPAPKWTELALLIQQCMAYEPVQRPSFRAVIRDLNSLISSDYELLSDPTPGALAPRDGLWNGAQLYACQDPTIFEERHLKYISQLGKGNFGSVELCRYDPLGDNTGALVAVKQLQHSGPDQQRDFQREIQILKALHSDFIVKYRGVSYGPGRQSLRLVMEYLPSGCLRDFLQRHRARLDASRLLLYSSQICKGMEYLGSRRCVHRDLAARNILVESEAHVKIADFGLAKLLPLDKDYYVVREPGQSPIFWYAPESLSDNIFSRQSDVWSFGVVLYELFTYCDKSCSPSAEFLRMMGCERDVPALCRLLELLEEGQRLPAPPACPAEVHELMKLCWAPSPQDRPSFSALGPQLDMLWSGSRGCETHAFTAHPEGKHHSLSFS

[3] = target: Tyrosine-protein kinase Lyn (Homo sapiens) (UniProt P07948); experiment: Inhibition of human LYN B at 500 nM by HotSpot assay relative to control
Sequence of Tyrosine-protein kinase Lyn (Homo sapiens) (P07948 2-512 limits assumed): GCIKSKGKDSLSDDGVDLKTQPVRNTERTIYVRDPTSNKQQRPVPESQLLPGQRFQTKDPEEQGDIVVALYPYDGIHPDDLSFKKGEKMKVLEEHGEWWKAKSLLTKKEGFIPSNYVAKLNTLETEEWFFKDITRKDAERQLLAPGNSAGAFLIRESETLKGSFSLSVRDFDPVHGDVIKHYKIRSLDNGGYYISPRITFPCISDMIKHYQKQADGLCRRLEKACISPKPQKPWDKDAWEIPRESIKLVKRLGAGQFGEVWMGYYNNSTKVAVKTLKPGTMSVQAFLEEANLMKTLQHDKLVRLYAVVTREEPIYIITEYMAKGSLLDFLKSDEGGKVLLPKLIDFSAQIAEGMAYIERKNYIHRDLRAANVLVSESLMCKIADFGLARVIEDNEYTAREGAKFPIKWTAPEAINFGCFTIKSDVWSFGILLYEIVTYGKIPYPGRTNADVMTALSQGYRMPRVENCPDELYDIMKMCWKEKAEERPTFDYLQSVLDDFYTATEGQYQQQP

[4] = target: Ribosomal protein S6 kinase alpha-5 (Homo sapiens) (UniProt O75582); experiment: Inhibition of human RPS6KA5 at 500 nM by HotSpot assay relative to control
Sequence of Ribosomal protein S6 kinase alpha-5 (Homo sapiens) (O75582 whole entry, looked up): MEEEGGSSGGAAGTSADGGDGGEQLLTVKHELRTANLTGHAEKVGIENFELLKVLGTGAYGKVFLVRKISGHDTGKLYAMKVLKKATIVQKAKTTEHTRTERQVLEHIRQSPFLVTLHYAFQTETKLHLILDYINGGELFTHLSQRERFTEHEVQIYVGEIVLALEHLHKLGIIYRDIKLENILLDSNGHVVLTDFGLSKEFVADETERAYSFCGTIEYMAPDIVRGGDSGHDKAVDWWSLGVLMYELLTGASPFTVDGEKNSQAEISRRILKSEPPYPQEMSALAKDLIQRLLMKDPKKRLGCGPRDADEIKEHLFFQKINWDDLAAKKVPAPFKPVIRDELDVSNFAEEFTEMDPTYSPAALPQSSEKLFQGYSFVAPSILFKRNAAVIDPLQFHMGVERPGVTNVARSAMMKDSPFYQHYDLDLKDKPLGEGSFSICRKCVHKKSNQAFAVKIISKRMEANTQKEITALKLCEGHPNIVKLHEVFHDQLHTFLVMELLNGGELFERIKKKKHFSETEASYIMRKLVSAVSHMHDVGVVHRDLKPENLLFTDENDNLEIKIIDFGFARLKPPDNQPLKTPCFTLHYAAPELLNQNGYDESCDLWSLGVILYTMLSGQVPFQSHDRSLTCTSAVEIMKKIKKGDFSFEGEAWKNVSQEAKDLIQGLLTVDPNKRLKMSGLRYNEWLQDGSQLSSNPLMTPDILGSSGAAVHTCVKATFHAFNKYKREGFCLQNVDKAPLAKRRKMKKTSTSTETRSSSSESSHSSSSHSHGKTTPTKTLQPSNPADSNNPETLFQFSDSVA

[5] = target: T2, cGMP-dependent protein kinase 2 (Homo sapiens) (UniProt Q13237); experiment: Inhibition of human PRKG2 at 500 nM by HotSpot assay relative to control
T2 sequence (whole entry): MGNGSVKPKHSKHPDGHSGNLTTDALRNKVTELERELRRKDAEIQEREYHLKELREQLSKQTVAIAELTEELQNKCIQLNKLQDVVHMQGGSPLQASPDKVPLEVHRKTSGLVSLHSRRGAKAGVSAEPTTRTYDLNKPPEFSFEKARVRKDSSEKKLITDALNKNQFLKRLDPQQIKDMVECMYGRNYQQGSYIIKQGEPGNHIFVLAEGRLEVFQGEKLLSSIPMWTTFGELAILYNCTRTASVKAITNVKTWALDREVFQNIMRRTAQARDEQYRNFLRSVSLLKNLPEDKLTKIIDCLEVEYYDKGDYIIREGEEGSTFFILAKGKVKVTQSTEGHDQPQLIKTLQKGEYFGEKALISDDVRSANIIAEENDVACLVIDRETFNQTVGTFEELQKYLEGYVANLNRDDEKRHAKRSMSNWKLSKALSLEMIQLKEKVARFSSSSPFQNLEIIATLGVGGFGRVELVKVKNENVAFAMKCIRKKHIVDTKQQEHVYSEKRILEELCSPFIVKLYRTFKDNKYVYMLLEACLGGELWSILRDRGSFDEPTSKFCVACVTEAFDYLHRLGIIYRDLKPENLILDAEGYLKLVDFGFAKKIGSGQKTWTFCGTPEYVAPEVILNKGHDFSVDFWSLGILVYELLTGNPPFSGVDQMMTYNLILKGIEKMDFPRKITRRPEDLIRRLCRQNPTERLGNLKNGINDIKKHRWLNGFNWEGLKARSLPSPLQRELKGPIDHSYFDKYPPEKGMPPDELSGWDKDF

[6] = target: Rho-associated protein kinase 1 (Homo sapiens) (UniProt Q13464); experiment: Inhibition of human ROCK1 at 500 nM by HotSpot assay relative to control
Sequence of Rho-associated protein kinase 1 (Homo sapiens) (Q13464 2-1354 limits assumed): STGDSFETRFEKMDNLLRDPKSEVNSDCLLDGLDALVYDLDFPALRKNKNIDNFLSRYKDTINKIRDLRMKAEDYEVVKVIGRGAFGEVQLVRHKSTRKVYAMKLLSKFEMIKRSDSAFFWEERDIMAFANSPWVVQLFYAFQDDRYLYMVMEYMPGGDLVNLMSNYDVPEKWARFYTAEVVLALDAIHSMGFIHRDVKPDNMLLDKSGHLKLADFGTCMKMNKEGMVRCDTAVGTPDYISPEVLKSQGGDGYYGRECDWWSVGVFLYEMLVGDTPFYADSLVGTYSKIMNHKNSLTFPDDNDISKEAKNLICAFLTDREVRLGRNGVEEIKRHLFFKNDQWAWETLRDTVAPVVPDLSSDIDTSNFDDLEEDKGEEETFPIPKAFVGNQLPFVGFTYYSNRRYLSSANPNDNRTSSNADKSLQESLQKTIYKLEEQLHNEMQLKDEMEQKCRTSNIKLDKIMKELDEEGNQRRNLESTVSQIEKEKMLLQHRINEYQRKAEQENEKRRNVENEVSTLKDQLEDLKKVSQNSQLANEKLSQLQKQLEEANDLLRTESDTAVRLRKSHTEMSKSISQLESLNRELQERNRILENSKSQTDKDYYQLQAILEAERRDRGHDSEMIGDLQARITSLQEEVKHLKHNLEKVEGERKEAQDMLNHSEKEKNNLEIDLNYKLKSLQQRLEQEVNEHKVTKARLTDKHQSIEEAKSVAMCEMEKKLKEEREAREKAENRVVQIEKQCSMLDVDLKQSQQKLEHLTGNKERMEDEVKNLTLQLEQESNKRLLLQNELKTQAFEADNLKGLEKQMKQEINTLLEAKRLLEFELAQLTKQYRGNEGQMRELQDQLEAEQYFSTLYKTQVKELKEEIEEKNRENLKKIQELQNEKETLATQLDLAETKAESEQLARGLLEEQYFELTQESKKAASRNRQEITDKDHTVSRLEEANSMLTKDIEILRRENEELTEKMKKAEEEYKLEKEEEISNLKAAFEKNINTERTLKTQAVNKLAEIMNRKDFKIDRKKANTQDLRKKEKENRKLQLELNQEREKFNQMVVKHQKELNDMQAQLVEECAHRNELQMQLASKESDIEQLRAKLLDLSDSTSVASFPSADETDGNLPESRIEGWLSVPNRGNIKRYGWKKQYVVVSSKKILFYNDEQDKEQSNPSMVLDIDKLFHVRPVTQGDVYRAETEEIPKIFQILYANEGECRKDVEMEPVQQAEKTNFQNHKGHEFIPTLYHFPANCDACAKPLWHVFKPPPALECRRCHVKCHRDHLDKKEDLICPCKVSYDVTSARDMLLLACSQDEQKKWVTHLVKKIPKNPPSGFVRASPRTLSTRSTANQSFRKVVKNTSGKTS

[7] = target: Ribosomal protein S6 kinase alpha-6 (Homo sapiens) (UniProt Q9UK32); experiment: Inhibition of human RSK4 at 500 nM by HotSpot assay relative to control
Sequence of Ribosomal protein S6 kinase alpha-6 (Homo sapiens) (Q9UK32 whole entry): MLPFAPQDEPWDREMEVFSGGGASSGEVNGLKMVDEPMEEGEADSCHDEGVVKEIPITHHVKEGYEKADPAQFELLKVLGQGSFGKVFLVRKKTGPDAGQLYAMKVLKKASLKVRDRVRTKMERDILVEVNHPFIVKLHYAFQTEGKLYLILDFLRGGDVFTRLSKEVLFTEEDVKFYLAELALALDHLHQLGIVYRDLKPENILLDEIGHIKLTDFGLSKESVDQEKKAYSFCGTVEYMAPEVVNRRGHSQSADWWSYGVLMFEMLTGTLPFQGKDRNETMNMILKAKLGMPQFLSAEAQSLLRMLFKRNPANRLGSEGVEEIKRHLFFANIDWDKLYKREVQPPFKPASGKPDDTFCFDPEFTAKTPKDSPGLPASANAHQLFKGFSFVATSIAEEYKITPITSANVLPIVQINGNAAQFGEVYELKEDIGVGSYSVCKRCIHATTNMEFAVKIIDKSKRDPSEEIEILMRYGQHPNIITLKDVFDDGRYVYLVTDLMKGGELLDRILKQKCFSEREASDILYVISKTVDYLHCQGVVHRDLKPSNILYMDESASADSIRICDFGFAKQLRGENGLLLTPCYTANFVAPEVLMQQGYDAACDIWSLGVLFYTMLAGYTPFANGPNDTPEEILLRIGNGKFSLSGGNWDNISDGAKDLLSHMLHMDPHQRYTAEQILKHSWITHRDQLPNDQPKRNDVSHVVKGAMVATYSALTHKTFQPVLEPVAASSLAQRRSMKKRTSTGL

Sequence of Casein kinase I isoform epsilon (Homo sapiens) (P49674 whole entry, looked up, canonical isoform): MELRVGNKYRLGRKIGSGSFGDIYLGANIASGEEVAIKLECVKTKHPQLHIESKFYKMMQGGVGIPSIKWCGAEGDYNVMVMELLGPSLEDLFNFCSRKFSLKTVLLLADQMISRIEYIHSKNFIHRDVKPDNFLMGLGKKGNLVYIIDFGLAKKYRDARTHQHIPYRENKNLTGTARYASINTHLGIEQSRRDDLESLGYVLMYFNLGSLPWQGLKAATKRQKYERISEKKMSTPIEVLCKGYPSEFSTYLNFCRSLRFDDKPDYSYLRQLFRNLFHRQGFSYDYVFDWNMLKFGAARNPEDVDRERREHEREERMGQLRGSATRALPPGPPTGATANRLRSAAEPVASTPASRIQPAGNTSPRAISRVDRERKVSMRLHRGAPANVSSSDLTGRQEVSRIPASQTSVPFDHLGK

Oc1n[nH]c2nnc(-c3c(-c4ccccc4)nn4ccccc34)cc12
inhibition [1]: 0.54% | inhibition [2]: -3.22% | inhibition [3]: 2.89% | inhibition [4]: -5.1% | inhibition [5]: 1.76% | inhibition [6]: 3.01% | inhibition [7]: -2.71%

Nc1n[nH]c2nnc(-c3c(-c4ccccc4)nn4ccccc34)cc12
inhibition [1]: 19.1% | inhibition [2]: -4.59% | inhibition [3]: 2.89% | inhibition [4]: -1.32% | inhibition [5]: -3.62% | inhibition [6]: -0.45% | inhibition [7]: 4.48%
